Laboratory results from US12403136B2, “Cannabinoid derivatives as pharmaceutically active compounds and methods of preparation thereof” (JAZZ PHARMACEUTICALS RESEARCH UK LIMITED, priority 2019, dated 2025).

System: mouse model of generalised seizure (tonic hind limb extensor convulsions)
Test: Maximal electroshock seizure threshold (MEST) test in the mouse
Conditions: for % change from vehicle: change in CC50; for CC50 +/− SEM: vehicle CC50 21.0 mA
Experimental: The efficacy of exemplary cannabinoid derivatives according to Formula I and Formula II were tested in a mouse model of generalised seizure, the maximal electroshock seizure threshold (MEST) test.
The maximal electroshock seizure threshold (MEST) test is widely utilized preclinically to evaluate pro- or anti-convulsant properties of test compounds (Loscher et al., 1991).
In the MEST test the ability of a drug to alter the seizure threshold current required to induce hind limb tonic extensor convulsions is measured according to an “up and down” method of shock titration (Kimball et al., 1957). An increase in seizure threshold is indicative of anti-convulsant effect.
Conversely, a reduction in seizure threshold is indicative of a pro-convulsant effect as observed with known convulsant agents such as picrotoxin.
The ability of a test compound to alter the stimulus intensity, expressed as current (mA), required to induce the presence of tonic hind limb extensor convulsions, is assessed in the MEST.
Naïve mice were acclimatised to the procedure room in their home cages for up to 7 days, with food and water available ad libitum.
All animals were weighed at the beginning of the study and randomly assigned to treatment groups based on a mean distribution of body weight across groups.
The first animal within a treatment group was given a shock at the expected or estimated CC50 current. For subsequent animals, the current was lowered or raised depending on the convulsions outcome from the preceding animal.
Data generated from each treatment group were used to calculate the CC50±SEM values for the treatment group.
Vehicle: (5% ethanol, 5% solutol in 90% Saline) was prepared as follows: 2 mL of ethanol, 2 mL of solutol were warmed to 60° C., in 36 mL of saline (1:1:18).
The test compounds used were 12a, 12b, 18a and 18b. Test compounds were administered at 200 mg/kg (i.p.) in a 1:1:18 ethanol:solutol:saline formulation.
The data for each treatment group were recorded as the number of +'s and 0's at each current level employed and this information is then used to calculate the CC50 value (current required for 50% of the animals to show seizure behaviour)±standard error.
Test compound effects were also calculated as percentage change in CC50 from the vehicle control group.
Significant difference between drug-treated animals and controls were assessed according to Litchfield and Wilcoxon (1949).

[1] = 200 mg/kg i.p., 120 min post dose
[2] = 200 mg/kg i.p., test 120 min post dose

Q: Which results are given for `C=C(C)[C@@H]1CCC(C)=C[C@H]1c1c(O)cc2c(c1O)[C@H](CC)CCC2` [Compound 12a]?
A: % change from vehicle (200 mg/kg i.p., 60 min post dose): 157%; CC50 +/− SEM (200 mg/kg i.p., test 60 min post dose): 54.0 +/− 0.2 mA

Q: Which results are given for `C=C(C)[C@@H]1CCC(C)=C[C@H]1c1c(O)cc2c(c1O)[C@H](CC)CCO2` [Compound 12b]?
A: % change from vehicle (200 mg/kg i.p., 30 min post dose): 109%; CC50 +/− SEM (200 mg/kg i.p., test 30 min post dose): 43.8 +/− 0.2 mA

Q: What does the source list for `C=C(C)[C@@H]1CCC(C)=C[C@H]1c1c(O)cc(O)c2c1CCC[C@H]2CC` [Compound 18a]?
A: % change from vehicle [1]: 99%; CC50 +/− SEM [2]: 41.8 +/− 0.5 mA

Q: How did the “% change from vehicle” value [1] turn out when `C=C(C)[C@@H]1CCC(C)=C[C@H]1c1c(O)cc(O)c2c1OCC[C@H]2CC` [Compound 18b] was run?
A: 92%

Q: What about the “CC50 +/− SEM” value [2] of the same molecule?
A: 40.3 +/− 0.8 mA

Q: How did the “% change from vehicle” value (diazepam 2.5 mg/kg i.p., 30 min post dose) turn out when `CN1C(=O)CN=C(c2ccccc2)c2cc(Cl)ccc21` [Diazepam, diazepam, reference compound] was run?
A: 66%
